Assay results published in patent US20080260650A1, “Methods of Detection and Therapy of Inflamed Tissues Using Immune Modulation” (THE GENERAL HOSPITAL Corporation, priority 2004, published 2008).

System: infected lesion (Candida albicans, left thigh)
Assay type: in vivo, mice (C57/BL)
Conditions: Candida-inoculated mice, day 8; GMCSF intramuscularly 3 days before PET; FDG 2 mCi/Kg via tail vein, PET 3 hours later; p<0.05 vs pre-GMCSF
Experimental: Candida albicans was suspended in saline to achieve a concentration of 2.5×10^9 yeast cells/ml. Three mice (C57/BL, Jackson Laboratories, Bar Harbor, Me.) were injected intramuscularly in the left thigh with 5×10^8 Candida albicans cells suspended in 0.2 ml of saline. The right thigh was injected with 0.2 ml of saline as a control.
Imaging of the animals was performed on days 5 and 8 after Candida inoculation. […] GMCSF was administered intramuscularly immediately after the first PET images were obtained (3 days prior to the second PET imaging).

GMCSF: granulocyte-macrophage colony stimulating factor, immune modulator; FDA approved under the tradename Leukine
FDG uptake within the infected lesion, post-GMCSF: 8150 nCi/cc
